Where two headings read alike, the source gives them in different places.
Assays:
HT-29 = assay: cells; details: Homo sapiens, HT-29, 48 h; for GI50: read-out: GI50 HT29; for CC50: read-out: LC50 HT29; for IC (TGI): read-out: TGI HT29
Procedure, shortened: (§1)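 Colorimetric SRB read (490 nm) on triplicate wells after 48 h at 37 °C, 5% CO2. Dose range 10 to 10^−8 μg/ml; 5×10^3 cells/well pre-attached 18 h.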

A-549 = assay: cells; details: Homo sapiens, A549, 48 h; for GI50: read-out: GI50 A549; for CC50: read-out: LC50 A549; for IC (TGI): read-out: TGI A549
Procedure, shortened: as §1

LoVo = assay: cells; details: Homo sapiens, LoVo, 48 h
Procedure, shortened: as §1

DU-145 = assay: Inhibition of cells growth by colorimetric assay (SRB); details: Homo sapiens, DU-145, 48 h; for GI50: read-out: GI50 DU145; for CC50: read-out: LC50 DU145; for IC (TGI): read-out: TGI DU145
Procedure, shortened: as §1

K-562 = assay: as above; details: Homo sapiens, K562, 48 h
Procedure, shortened: as §1

LoVo-Dox = assay: as above; details: Homo sapiens, 48 h
Procedure, shortened: as §1

HeLa = assay: as above; details: Homo sapiens, HeLa, 48 h
Procedure, shortened: as §1

SK-BR-3 = assay: as above; details: Homo sapiens, SK-BR-3, 48 h
Procedure, shortened: as §1

LNCaP = assay: as above; details: Homo sapiens, LNCaP, 48 h; for GI50: read-out: GI50 LNCAP; for CC50: read-out: LC50 LNCAP; for IC (TGI): read-out: TGI LNCAP
Procedure, shortened: as §1

SK-MEL-28 = assay: as above; details: Homo sapiens, SK-MEL-28, 48 h; for GI50: read-out: GI50 MEL-28; for CC50: read-out: LC50 MEL-28; for IC (TGI): read-out: TGI MEL-28
Procedure, shortened: as §1

IGROV-1 = assay: as above; details: Homo sapiens, IGROV-1, 48 h
Procedure, shortened: as §1

PANC-1 = assay: as above; details: Homo sapiens, PANC-1, 48 h
Procedure, shortened: as §1

IGROV-ET = assay: as above; details: Homo sapiens, 48 h
Procedure, shortened: as §1

HeLa-APL = assay: as above; details: Homo sapiens, 48 h
Procedure, shortened: as §1

For COc1c(C)cc2c(c1OC(=O)/C=C/c1ccccc1)[C@H]1N[C@@H](C2)[C@H](C#N)N2C1[C@@H]1SCC(NC(=O)C(F)(F)F)C(=O)OC[C@H]2c2c3c(c(C)c(OC(C)=O)c21)OCO3 (some centres unmarked) [compound 34], the GI50 (HT-29) was 62 nM, the CC50 (HT-29) was 1640 nM and the IC (TGI) (HT-29) was 165 nM. For the same compound, the GI50 (A-549) was 55.3 nM, the CC50 (A-549) was 611 nM and the IC (TGI) (A-549) was 184 nM. It also gave a GI50 (LoVo; read-out: LOVO GI50) of 28.7 nM, a CC50 (LoVo; read-out: LOVO LC50) of 98.6 nM and an IC (TGI) (LoVo; read-out: LOVO TGI) of 53.2 nM. The GI50 (DU-145) was 51.1 nM, the CC50 (DU-145) was 53.7 nM and the IC (TGI) (DU-145) was 98.7 nM. The GI50 (K-562; read-out: K562 GI50) was 16.2 nM, the CC50 (K-562; read-out: K562 LC50) was 146 nM and the IC (TGI) (K-562; read-out: K562 TGI) was 45 nM. It also gave a GI50 (LoVo-Dox; read-out: LOVO-DOX GI50) of 140 nM, a CC50 (LoVo-Dox; read-out: LOVO-DOX LC50) of 12000 nM and an IC (TGI) (LoVo-Dox; read-out: LOVO-DOX TGI) of 410 nM. It also gave a GI50 (HeLa; read-out: HELA GI50) of 33.5 nM, a CC50 (HeLa; read-out: HELA LC50) of 116 nM and an IC (TGI) (HeLa; read-out: HELA TGI) of 62.4 nM. For the same compound, the GI50 (SK-BR-3; read-out: SK-BR3 GI50) was 12.7 nM, the CC50 (SK-BR-3; read-out: SK-BR3 LC50) was 626 nM and the IC (TGI) (SK-BR-3; read-out: SK-BR3 TGI) was 70.1 nM. For the same compound, the GI50 (LNCaP) was 22 nM, the CC50 (LNCaP) was 147 nM and the IC (TGI) (LNCaP) was 52.1 nM. It also gave a GI50 (SK-MEL-28) of 32.7 nM, a CC50 (SK-MEL-28) of 111 nM and an IC (TGI) (SK-MEL-28) of 60.3 nM. It also gave a GI50 (IGROV-1; read-out: IGROV GI50) of 29.2 nM, a CC50 (IGROV-1; read-out: IGROV LC50) of 117 nM and an IC (TGI) (IGROV-1; read-out: IGROV TGI) of 58.3 nM. For the same compound, the GI50 (PANC-1; read-out: PANC-1 GI50) was 51.1 nM, the CC50 (PANC-1; read-out: PANC-1 LC50) was 841 nM and the IC (TGI) (PANC-1; read-out: PANC-1 TGI) was 123 nM. It also gave a GI50 (IGROV-ET; read-out: IGROV-ET GI50) of 89.5 nM, a CC50 (IGROV-ET; read-out: IGROV-ET LC50) of 860 nM and an IC (TGI) (IGROV-ET; read-out: IGROV-ET TGI) of 262 nM. The GI50 (HeLa-APL; read-out: HELA-APL GI50) was 33.9 nM, the CC50 (HeLa-APL; read-out: HELA-APL LC50) was 108 nM and the IC (TGI) (HeLa-APL; read-out: HELA-APL TGI) was 60.5 nM.
With C=CCN1[C@@H]2c3c(cc(C)c(OC)c3OC(=O)/C=C/c3ccccc3)C[C@H]1[C@H](C#N)N1C2[C@@H]2SCC(NC(=O)C(F)(F)F)C(=O)OC[C@H]1c1c3c(c(C)c(OC(C)=O)c12)OCO3 (some centres unmarked) [compound 29] the GI50 (HT-29) was 11400 nM, the CC50 (HT-29) was 11400 nM and the IC (TGI) (HT-29) was 11400 nM. The GI50 (A-549) was 4800 nM, the CC50 (A-549) was 11400 nM and the IC (TGI) (A-549) was 11400 nM. It also gave a GI50 (LoVo; read-out: GI50 LOVO) of 2850 nM, a CC50 (LoVo; read-out: LC50 LOVO) of 11400 nM and an IC (TGI) (LoVo; read-out: TGI LOVO) of 11400 nM. The GI50 (DU-145) was 2300 nM, the CC50 (DU-145) was 11400 nM and the IC (TGI) (DU-145) was 7930 nM. For the same compound, the GI50 (K-562; read-out: GI50 K562) was 629 nM, the CC50 (K-562; read-out: LC50 K562) was 11400 nM and the IC (TGI) (K-562; read-out: TGI K562) was 3900 nM. The GI50 (LoVo-Dox; read-out: GI50 LOVO-DOX) was 4090 nM, the CC50 (LoVo-Dox; read-out: LC50 LOVO-DOX) was 11400 nM and the IC (TGI) (LoVo-Dox; read-out: TGI LOVO-DOX) was 11400 nM. It also gave a GI50 (HeLa; read-out: GI50 HELA) of 6300 nM, a CC50 (HeLa; read-out: LC50 HELA) of 11400 nM and an IC (TGI) (HeLa; read-out: TGI HELA) of 11400 nM. The GI50 (SK-BR-3; read-out: GI50 SK-BR3) was 889 nM, the CC50 (SK-BR-3; read-out: LC50 SK-BR3) was 11400 nM and the IC (TGI) (SK-BR-3; read-out: TGI SK-BR3) was 7980 nM. For the same compound, the GI50 (LNCaP) was 878 nM, the CC50 (LNCaP) was 11400 nM and the IC (TGI) (LNCaP) was 6070 nM. It also gave a GI50 (SK-MEL-28) of 3740 nM, a CC50 (SK-MEL-28) of 11400 nM and an IC (TGI) (SK-MEL-28) of 11400 nM. The GI50 (IGROV-1; read-out: GI50 IGROV) was 2190 nM, the CC50 (IGROV-1; read-out: LC50 IGROV) was 11400 nM and the IC (TGI) (IGROV-1; read-out: TGI IGROV) was 11400 nM. For the same compound, the GI50 (PANC-1; read-out: GI50 PANC-1) was 6550 nM, the CC50 (PANC-1; read-out: LC50 PANC-1) was 11400 nM and the IC (TGI) (PANC-1; read-out: TGI PANC-1) was 11400 nM. For the same compound, the GI50 (IGROV-ET; read-out: GI50 IGROV-ET) was 3120 nM, the CC50 (IGROV-ET; read-out: LC50 IGROV-ET) was 11400 nM and the IC (TGI) (IGROV-ET; read-out: TGI IGROV-ET) was 11400 nM. For the same compound, the GI50 (HeLa-APL; read-out: GI50 HELA-APL) was 4290 nM and the CC50 (HeLa-APL; read-out: LC50 HELA-APL) was 11400 nM.
